In PubChem BioAssay (NCI):
Where “and” joins values, the source holds several entries; their conditions need not be identical. Identical values can stand only once.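 1) Cells in 96-well plates. 2) Compound, 48 h, 5 concentrations. 3) Linear interpolation between surrounding doses. 4) Unreached endpoint = highest concentration. TGI denotes the concentration required for complete inhibition of growth.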

How the values were obtained:
Assay in all cases: NCI tumour cell line growth inhibition, 48 h
LXFL 529 NSCLC = test system: LXFL 529 NSCLC
HOP-18 NSCLC = test system: HOP-18 NSCLC
RXF-631 renal = test system: RXF-631 renal
XF 498 CNS = test system: XF 498 CNS
DMS 114 small cell lung = test system: DMS 114 small cell lung
SN12K1 renal = test system: SN12K1 renal
P388/ADR leukemia = test system: P388/ADR leukemia
P388 leukemia = test system: P388 leukemia

Structure (SMILES) | TGI (LXFL 529 NSCLC) [µM] | TGI (HOP-18 NSCLC) [µM] | TGI (RXF-631 renal) | TGI (XF 498 CNS) [µM] | TGI (DMS 114 small cell lung) [µM] | TGI (SN12K1 renal) [µM] | TGI (P388/ADR leukemia) [µM] | TGI (P388 leukemia) [µM]
C/C=C(/CCC1NCCc2c1[nH]c1ccccc21)[Si](C)(C)C (stereo unspecified) | 3.25 | 24.2 | > 100 µM and 22.9 µM | – | – | – | – | –
C=CCN1C(=O)NC(=O)/C(=C/c2c3ccccc3cc3ccccc23)C1=O | – | – | – | 40.7 | 45.2 | – | – | –
O=S1(=O)C(=C(c2ccccc2)c2ccccc2)S(=O)(=O)c2ccccc21 | – | > 100 | – | 62.4 | > 100 | 65.1 | > 100 | > 31.6
